Assay results as given in patent publication US20220324835A1 (Nurix Therapeutics, Inc., priority 2018, published 2022).
Like-named read-outs stand apart in the source and are kept apart here.

Columns and labels:
primary human NK cells = assay: NK cell activation assessed by cytokine secretion (coculture with K562 NucRed target cells); format: cell-based; details: for fold induction at 0.625 µM: 0.625 μM compound; for fold induction at 2.5 µM: 2.5 μM compound
Method in brief: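 Read-out is cytokine secretion (IFNγ, TNFα, MIP1β; ELISA or Luminex) as fold over coculture without inhibitor, >2.0-fold taken as positive. Donor NK cells, IL-2 primed (60 ng/mL) overnight, received compound 1 h ahead (e.g. 0.1–10 μM, DMSO <0.1%) and were mixed 6 h with K562 NucRed targets at e.g. 5:1, 1:1, 1:5.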

Cbl-b (residues 36-427) = Cbl-b (residues 36-427) (Homo sapiens, UniProt Q13191); assay: Cbl-b binding assay (SPR, Biacore T200); details: 20° C., 1:1 binding model
Method in brief: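 Steps: capture protein on NeutrAvidin surface; inject compound dilutions (8 or 10 points from 100 or 50 μM) 50 s; allow 90-180 s dissociation; regenerate 20 s with 0.3 M NaCl. Runs at 20° C in HEPES pH 7.5/100 mM NaCl/2% DMSO; 1:1 fitting.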

T-cell = assay: IL-2 secretion from T-cells stimulated with anti-CD3 antibody alone (Biological Example 2); format: cell-based, human; details: T-cell, fold change over baseline, primary human total T-cells, read-out: IL-2 secretion Anti-CD3 stimulation; for fold induction at 1 µM: 1 μM Cbl-b inhibitor; for fold induction at 8 µM: 8 μM Cbl-b inhibitor
[1] = K562, NK cells cocultured with K562 NucRed, 1:1 E/T, read-out: IFNγ secretion, fold change over baseline
[2] = K562, NK cells cocultured with K562 NucRed, 1:1 E/T, read-out: TNFα secretion, fold change over baseline
[3] = K562, NK cells cocultured with K562 NucRed, 1:1 E/T, 10 μM compound, read-out: IFNγ secretion, fold change over baseline
[4] = K562, NK cells cocultured with K562 NucRed, 1:1 E/T, 10 μM compound, read-out: TNFα secretion, fold change over baseline
[5] = K562, 1:1 E/T, read-out: IFNγ secretion
[6] = K562, 1:1 E/T, read-out: MIP1β secretion
[7] = K562, 1:1 E/T, read-out: TNFα secretion
[8] = K562, 1:1 E/T, 10 μM, read-out: IFNγ secretion
[9] = K562, 1:1 E/T, 10 μM, read-out: MIP1β secretion
[10] = K562, 1:1 E/T, 10 μM, read-out: TNFα secretion
[11] = K562, 5:1 E/T, read-out: IFNγ secretion
[12] = K562, 5:1 E/T, read-out: MIP1β secretion
[13] = K562, 5:1 E/T, read-out: TNFα secretion
[14] = K562, 5:1 E/T, 10 μM, read-out: IFNγ secretion
[15] = K562, 5:1 E/T, 10 μM, read-out: MIP1β secretion
[16] = K562, 5:1 E/T, 10 μM, read-out: TNFα secretion

Sequence of Cbl-b (residues 36-427) (Q13191 36-427): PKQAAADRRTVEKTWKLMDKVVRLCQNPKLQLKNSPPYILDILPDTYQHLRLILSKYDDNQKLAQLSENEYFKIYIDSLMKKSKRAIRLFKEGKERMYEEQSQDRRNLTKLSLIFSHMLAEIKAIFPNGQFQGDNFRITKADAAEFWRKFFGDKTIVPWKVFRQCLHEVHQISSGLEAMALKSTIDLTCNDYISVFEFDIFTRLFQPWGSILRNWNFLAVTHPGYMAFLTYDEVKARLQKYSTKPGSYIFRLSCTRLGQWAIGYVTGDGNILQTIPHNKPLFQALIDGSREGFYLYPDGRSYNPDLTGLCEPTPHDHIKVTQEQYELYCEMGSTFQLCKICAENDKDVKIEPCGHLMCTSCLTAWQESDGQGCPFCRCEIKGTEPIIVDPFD

Row | Structure (SMILES) | fold induction at 0.625 µM (primary human NK cells; [1]) | fold induction at 0.625 µM (primary human NK cells; [2]) | fold induction at 2.5 µM (primary human NK cells; [1]) | fold induction at 2.5 µM (primary human NK cells; [2]) | fold induction at 10 µM (primary human NK cells; [3]) | fold induction at 10 µM (primary human NK cells; [4]) | Kd (Cbl-b (residues 36-427)) [nM] | fold induction at 1 µM (T-cell) | fold induction at 8 µM (T-cell) | fold induction at 1 µM (primary human NK cells; [5]) | fold induction at 1 µM (primary human NK cells; [6]) | fold induction at 1 µM (primary human NK cells; [7]) | fold induction at 10 µM (primary human NK cells; [8]) | fold induction at 10 µM (primary human NK cells; [9]) | fold induction at 10 µM (primary human NK cells; [10]) | fold induction at 1 µM (primary human NK cells; [11]) | fold induction at 1 µM (primary human NK cells; [12]) | fold induction at 1 µM (primary human NK cells; [13]) | fold induction at 10 µM (primary human NK cells; [14]) | fold induction at 10 µM (primary human NK cells; [15]) | further results
1 | C[C@H](Cc1nncn1C)c1cccc(NC(=O)c2cccc(C(F)(F)F)n2)c1 [Compound 183a, (R)-N-(3-(1-(4-methyl-4H-1,2,4-triazol-3-yl)propan-2-yl)phenyl)-6-(trifluoromethyl)picolinamide] | 2.01 to 5 | 1.01 to 2 | 2.01 to 5 | 2.01 to 5 | 2.01 to 5 | 2.01 to 5 | 100 to 300 | > 0.201 | > 0.201 | – | – | – | – | – | – | – | – | – | – | – | –
2 | C[C@H](Cc1nncn1C)c1cccc(NC(=O)c2cc(C3CC3)cc(C(F)(F)F)n2)c1 [Compound 191, (R)-4-cyclopropyl-N-(3-(1-(4-methyl-4H-1,2,4-triazol-3-yl)propan-2-yl)phenyl)-6-(trifluoromethyl)picolinamide] | – | – | – | – | – | – | < 100 | > 0.201 | > 0.201 | 2.01 to 5 | 1.01 to 2 | 2.01 to 5 | 2.01 to 5 | 1.01 to 2 | 1.01 to 2 | 2.01 to 5 | 1.01 to 2 | 2.01 to 5 | > 5 | 1.01 to 2 | fold induction at 10 µM (primary human NK cells; [16]): 2.01 to 5
3 | Cc1cc(C(=O)Nc2cccc([C@H](C)Cc3nncn3C)c2)nc(C2CC2)n1 [Compound 195, (R)-2-cyclopropyl-6-methyl-N-(3-(1-(4-methyl-4H-1,2,4-triazol-3-yl)propan-2-yl)phenyl)pyrimidine-4-carboxamide] | 2.01 to 5 | 1.01 to 2 | 2.01 to 5 | 2.01 to 5 | > 5 | 2.01 to 5 | < 100 | > 0.201 | > 0.201 | 2.01 to 5 | 1.01 to 2 | 2.01 to 5 | 2.01 to 5 | 2.01 to 5 | 2.01 to 5 | 2.01 to 5 | 2.01 to 5 | 2.01 to 5 | > 5 | 2.01 to 5 | fold induction at 10 µM (primary human NK cells; [16]): > 5
4 | C[C@H](Cc1nncn1C)c1cccc(NC(=O)c2cc(C(=O)N3CC[C@H](O)C3)cc(C(F)(F)F)n2)c1 [Compound 220, 4-((S)-3-hydroxypyrrolidine-1-carbonyl)-N-(3-((R)-1-(4-methyl-4H-1,2,4-triazol-3-yl)propan-2-yl)phenyl)-6-(trifluoromethyl)picolinamide] | – | – | – | – | – | – | < 100 | > 0.201 | > 0.201 | 1.01 to 2 | 1.01 to 2 | 1.01 to 2 | 2.01 to 5 | 2.01 to 5 | 2.01 to 5 | 1.01 to 2 | 1.01 to 2 | 1.01 to 2 | 2.01 to 5 | 2.01 to 5 | fold induction at 10 µM (primary human NK cells; [16]): 2.01 to 5
5 | C[C@H](Cc1nncn1C)c1cccc(N2Cc3c(cccc3C(F)(F)F)C2=O)c1 [Compound 255a, (R)-2-(3-(1-(4-methyl-4H-1,2,4-triazol-3-yl)propan-2-yl)phenyl)-4-(trifluoromethyl)isoindolin-1-one] | 1.01 to 2 | 1.01 to 2 | 1.01 to 2 | 1.01 to 2 | 2.01 to 5 | 2.01 to 5 | 100 to 300 | 0.051 to 0.1 | > 0.201 | 1.01 to 2 | < 1 | < 1 | 2.01 to 5 | 1.01 to 2 | < 1 | 1.01 to 2 | < 1 | < 1 | > 5 | 1.01 to 2 | fold induction at 10 µM (primary human NK cells; [16]): < 1
6 | C[C@H](Cc1nncn1C)c1cccc(NC(=O)c2n[nH]c3c2CCC3)c1 [Compound 313, (R)-N-(3-(1-(4-Methyl-4H-1,2,4-triazol-3-yl)propan-2-yl)phenyl)-1,4,5,6-tetrahydrocyclopenta[c]pyrazole-3-carboxamide] | < 1 | 1.01 to 2 | 1.01 to 2 | 1.01 to 2 | 2.01 to 5 | 1.01 to 2 | 301 to 1000 | 0.101 to 0.15 | 0.151 to 0.2 | – | – | – | – | – | – | – | – | – | – | – | –
7 | Cc1cc(C(=O)Nc2cccc([C@@H](C)Cc3nncn3C)c2)nc(C2CC2)n1 [Compound 325, (S)-2-Cyclopropyl-6-methyl-N-(3-(1-(4-methyl-4H-1,2,4-triazol-3-yl)propan-2-yl)phenyl)pyrimidine-4-carboxamide] | 1.01 to 2 | < 1 | 1.01 to 2 | < 1 | 2.01 to 5 | 1.01 to 2 | 301 to 1000 | 0.051 to 0.1 | 0.101 to 0.15 | – | – | – | – | – | – | – | – | – | – | – | –
8 | Cn1cnnc1CC1(c2cccc(NC(=O)c3nc4c(C(F)(F)F)cccc4[nH]3)c2)COC1 [Compound 335, N-(3-{3-[(4-methyl-1,2,4-triazol-3-yl)methyl]oxetan-3-yl}phenyl)-4-(trifluoromethyl)-1H-1,3-benzodiazole-2-carboxamide] | 1.01 to 2 | 1.01 to 2 | 2.01 to 5 | 1.01 to 2 | 2.01 to 5 | 2.01 to 5 | < 100 | 0.101 to 0.15 | > 0.201 | – | – | – | – | – | – | – | – | – | – | – | –
9 | Cc1cc(C(=O)Nc2cccc(C3(Cc4nncn4C)COC3)c2)nc(C2CC2)n1 [Compound 336, 2-cyclopropyl-6-methyl-N-(3-(3-((4-methyl-4H-1,2,4-triazol-3-yl)methyl)oxetan-3-yl)phenyl)pyrimidine-4-carboxamide] | 2.01 to 5 | 1.01 to 2 | > 5 | 2.01 to 5 | > 5 | 2.01 to 5 | < 100 | > 0.201 | > 0.201 | – | – | – | – | – | – | – | – | – | – | – | –
10 | C[C@H](Cc1nncn1C)c1cccc(NC(=O)c2cc3cc(N4CCNCC4)ccc3cn2)c1 [Compound 472, N-{3-[(2R)-1-(4-methyl-4H-1,2,4-triazol-3-yl)propan-2-yl]phenyl}-6-(piperazin-1-yl)isoquinoline-3-carboxamide] | < 1 | < 1 | 1.01 to 2 | < 1 | 2.01 to 5 | 1.01 to 2 | < 100 | – | – | – | – | – | – | – | – | – | – | – | – | – | –
